In US10072304B2, “Nuclear localization of Src-family tyrosine kinases is required for growth factor-induced euchromatinization” (National University Corporation Chiba University, priority 2009, dated 2018):

Test system: COS-1 cells
Test: Quantitation of chromatin condensation levels (S.D. value of PI intensity per pixel) in COS-1 cells
Assay type: cell-based, monkey
Protocol: COS-1, HeLa cells (Japanese Collection of Research Bioresources, Osaka), MCF-7 (provided by H. Saya), A431 (provided by M. N. Fukuda), HEK293 (provided by […]), HCT116 (provided by T. Tomonaga), and SYF ([37]; provided by M. Okada and S. Nada) cells were cultured in Iscove's modified DME containing 5% fetal bovine serum (FBS). Cells were transiently transfected with 0.5 μg of plasmid vector using Trans IT Transfection reagent (Mirus) or with 1 μg of plasmid vector using linear polyethylenimine (25 kDa) (Polyscience, Inc.). For growth factor stimulation, COS-1 cells were starved under low serum conditions (0.05% FBS) for 24 h and restimulated with serum (5% FBS). For stimulation of endogenous SFKs, cells were treated with 3 mM Na3VO4 for 3 h, and SFK-mediated tyrosine phosphorylation was verified by treatment with 10 μM PP2 (SFK inhibitor; Calbiochem) or 100 nM wortmannin (PI3K inhibitor; Alomone Labs) for 21 h before Na3VO4 treatment. Na3VO4 was dissolved at 500 mM in 500 mM unbuffered HEPES before use. For preparation of stable transfectant clones, SYF cells transfected with c-Src-wt or Lyn-wt were selected in 333 μg/mL Zeocin (Invitrogen), and COS-1 cells were transfected with the BOSH2BGFP-N1 vector, which encodes GFP-tagged histone H2B ([39,40]; provided by H. Saya), were selected in 3 μg/mL blasticidin. Confocal and Nomarski differential-interference-contrast images were obtained using a Fluoview FV500 confocal laser scanning microscope with a 40×1.00 NA oil and a 100×1.35 NA oil immersion objective (Olympus, Tokyo) and an LSM 510 confocal laser scanning microscope with a 63×1.40 NA oil immersion objective (Zeiss), as described. One planar (xy) section slice (0.6-μm thickness) is shown in all experiments. In brief, cells were fixed with 4% paraformaldehyde for 20 min, and permeabilized in phosphate-buffered saline (PBS) containing 0.1% saponin and 3% bovine serum albumin at room temperature. Cells were subsequently reacted with an appropriate primary antibody for 1 h, washed with PBS containing 0.1% saponin, stained with FITC- or TRITC-conjugated secondary antibody for 1 h. […] To ensure no bleed-through from the fluorescein signal into the red channel, fluorescein and rhodamine were independently excited at 488 nm and 543 nm, respectively. PI was excited at 488 or 543 nm. Emission signals were detected between 505 and 525 nm for fluorescein, at more than 560 nm for rhodamine and more than 610 nm for PI [44]. Composite figures were prepared using Photoshop 5.0 and Illustrator 9.0 software (Adobe). For nuclear staining with anti-pTyr, anti-ATF-2 […]/71, and anti-histone H3K4me3 antibodies, cells were in situ extracted with 0.5% Triton X-100 at 4° C. for 3 min before fixation with 4% paraformaldehyde. For HP1α staining, cells were fixed in 100% methanol at -20° C. for 10 min followed by permeabilization for 30 min in PBS containing 0.1% Triton X-100 at room temperature. Cells were reacted with anti-HP1α antibody for 1 h at room temperature, washed with PBS four times, and stained with secondary antibody for 1 h. Fluorescence intensity plots of anti-histone H3K4me3, anti-ATF-2 […]/71 and anti-HP1α antibody and PI staining (see FIGS. 18B, 19B, and 20B, respectively) were generated using Fluoview version 4.3 software (Olympus, Tokyo). For detection of the kinase activity of nuclear SFKs, purified nuclei suspended in kinase buffer (50 mM HEPES-NaOH, pH7.4, 5 mM MgCl2, 5 mM MnCl2 and 0.1 mM Na3VO4) were preincubated with or without 10 μM PP2 at 30° C. for 30 min, and subsequently incubated with 5 or 10 μM ATP at 30° C. for 30 min, followed by cytocentrifugation at 200×g for 5 min and fixation with 4% paraformaldehyde. DNA was stained with 20 μg/mL PI and 200 μg/mL RNase A for 30 min. Mean fluorescence intensity of tyrosine-phosphorylated proteins in the nucleus was measured using the ImageJ software (National Institutes of Health). Confocal images of PI-stained nuclei were obtained as described above. […]

Row | Compound | hypo- and hypercondensed chromatin states (COS-1, 3 mM Na3VO4 for 3 h, FIGS. 23 and 26) | basal levels of chromatin condensation (COS-1, 10 μM PP2 or 100 nM wortmannin for 24 h, FIGS. 22 and 26) | chromatin hypo- and hypercondensation in Na3VO4-treated cells (COS-1, 10 μM PP2 pretreatment 21 h, then 3 mM Na3VO4 3 h, FIGS. 23 and 26) | serum-stimulated chromatin hypo- and hypercondensation (COS-1 starved 24 h (0.05% FBS), stimulated with 5% FBS in presence of 10 μM PP2, FIG. 16) | hyperosmotic stress-induced chromatin structural changes (cells not specified, hyperosmolar conditions, data not shown)
1 | [Na+].[Na+].[Na+].[O]=[V]([O-])([O-])[O-] [Na3VO4, sodium orthovanadate] | induced drastic changes | – | – | – | –
2 | CC(C)(C)n1nc(-c2ccc(Cl)cc2)c2c(N)ncnc21 [PP2] | – | significantly reduce | decrease | significantly inhibited | did not inhibit
